Where a name gives a salt, the structure may show the parent alone.
System: rat oligodendrocyte progenitor CG4 line
Assay: Differentiation assay on rat oligodendrocyte progenitor CG4 line (HCS, mCherry+)
Assay type: cell-based
Conditions: secondary screen of 49 selected compounds, 1 μM, 5 days
Text: Primary validation on CG4 line toxicity and differentiation. An innovative OPC line was developed for fast and reliable high content screening (HCS) of small compounds inducing oligodendrocyte differentiation. The line was genetically engineered by lentiviral transduction of rat CG4 cells (PubMed=1613821; DOI=10.1002/jnr.490310125; Louis J. C., Magal E., Muir D., Manthorpe M., Varon S.; CG-4, a new bipotential glial cell line from rat brain, is capable of differentiating in vitro into either mature oligodendrocytes or type-2 astrocytes. J. Neurosci. Res. 31:193-204(1992) to express mCherry fluorescent reporter (Evercooren, Anne & Avellana-Adalid, V. & Vitry, Sandrine & Nait-Oumesmar, Brahim & Lachapelle, Francois. (1997). Expansion of Oligodendrocyte Progenitors for Myelin Repair. 10.1007/978-1-4615-5949-8_21) in mature oligodendrocytes only, and EGFP at all stage of the oligodendroglial lineage: both the generation of mature oligodendrocytes (wmNl-mCherry) and the morphological changes associated with differentiation (CMV-EGFP) can be therefore monitored in a single assay. mCherry expression occurred only in O4+/GalC+ differentiated oligodendrocytes and GFP was ubiquitously expressed at all developmental stages. The line so obtained was validated using compounds with well-established effects on oligodendrocyte differentiation (cAMP and T3). Cell-based assay was standardized on the HCS platform (ArrayScanXTI, Brain and Spine Institute (Paris), validating the pro-differentiation effects of clemastine^27 and 9cis-retinoic acid.^28 For HCS validation of 274 compounds identified through in silico screen, double-fluo CG4 line cells were plated in 96 well-plates, 6500 cells/cm^2 and left for 24 h in proliferation. The other day, compounds were added (1 μM) for next 5 days of differentiation, with ⅔ medium changed after 3 days. 9-cis Retinoic Acid (9cis-RA; […]) served as a positive control, negative controls were basal (N1) medium and vehicle (basal+0.1% DMSO). Each compound was tested in triplicate and were imaged with ArrayScanXTI system (35 fields/well) after 5 days of differentiation.
FIG. 4 provides a schematic representation of High Content Screening (HCS) validation of the 274 compounds identified through in silico screening using CG4 line. […] In addition, the whole short list of 160 non-toxic compounds were screened using the CG4 high content phenotypic assay to further confirm the data from primary screening and to potentially select additional compounds with pro-myelinating activities. From this screening of the short list, 49 hit compounds were identified that increase differentiation either of CG4 cells or primary OPCs (FIG. 6).

Compound	CG4 differentiation compared with 9cis-RA positive control
Cc1cncc(CN2CCC(=C3c4ccc(Cl)cc4CCc4cccnc43)CC2)c1 [Rupatadine]	promoting differentiation significantly higher than 9cis-RA positive control
C[N+](C)(C)CCOP(=O)([O-])OC[C@H](O)CO [CHOLINE ALFOSCERATE]	promoting differentiation significantly higher than 9cis-RA positive control
O=C1NC(=O)C(c2cnc3ccccn23)=C1c1cn2c3c(cc(F)cc13)CN(C(=O)N1CCCCC1)CC2 [LY-2090314]	promoting differentiation significantly higher than 9cis-RA positive control
CCCc1nc(C(F)(F)F)ccc1/C=C/C(=O)N[C@H](C)c1cc(F)c(NS(C)(=O)=O)c(F)c1 [PAC-14028]	promoting differentiation significantly higher than 9cis-RA positive control
Cc1cc(Nc2cc(CN3CCOCC3)c3nc(C)c(Cc4ccc(Cl)cc4F)n3n2)n[nH]1 [GANDOTINIB, Gandotinib]	promoting differentiation significantly higher than 9cis-RA positive control
O=C(O)Cn1c2c(c3cc(F)ccc31)CN(C(=O)c1cccc3ccccc13)CC2 [SETIPIPRANT]	promoting differentiation significantly higher than 9cis-RA positive control
C[C@]12CCC(=O)C[C@@H]1CC[C@@H]1[C@@H]2CC[C@]2(C)[C@@H](O)CC[C@@H]12 [STANOLONE]	promoting differentiation significantly higher than 9cis-RA positive control
CNC(=O)c1cc(Oc2ccc(NC(=O)Nc3cc(C(C)(C)C)nn3-c3ccc4ncccc4c3)c(F)c2)ccn1 [REBASTINIB]	promoting differentiation significantly higher than 9cis-RA positive control
CN(C(=O)C(c1ccccc1)c1ccccc1)[C@H](CN1CC[C@H](O)C1)c1ccccc1 [ASIMADOLINE]	promoting differentiation significantly higher than 9cis-RA positive control
COCCOc1cnc2ccn([C@H](C)c3nnc4c(F)cc(-c5cnn(C)c5)cn34)c(=O)c2c1 [AMG-337]	promoting differentiation significantly higher than 9cis-RA positive control
CN(C(=O)c1ccc(F)cc1C(F)(F)F)C1CCN(c2nnc(-c3ccnn3C)c3ccccc23)CC1 [Taladegib]	promoting differentiation significantly higher than 9cis-RA positive control
Cc1cc(Oc2ccc3nc(COc4ccc(CC5SC(=O)NC5=O)cc4)n(C)c3c2)cc(C)c1N (centres unmarked) [Efatutazone hydrochloride, Efatutazone Hydrochloride]	promoting differentiation significantly higher than 9cis-RA positive control
O=c1oc2c(O)c(O)cc3c(=O)oc4c(O)c(O)cc1c4c23 [Ellagic Acid]	promoting differentiation significantly higher than 9cis-RA positive control
Cc1ccc(C(=O)NC2CC2)cc1-n1ncc(C(=O)c2cccc(C#N)c2)c1N [Acumapimod]	promoting differentiation significantly higher than 9cis-RA positive control

System: murine cortical neurons (14 DIV)
Assay: NMDA-mediated neuroprotective assay (CCK8 viability)
Assay type: cell-based, mouse
Conditions: 1 μM, 3 h pre-treatment, NMDA 8 μM 24 h, p<0.05
Protocol: To assess neuroprotective activity of 160 selected non-toxic compounds on primary murine cortical neurons, obtained as described in the previous paragraph, ([…]), cultures were pre-treated with 1 μM compounds for either 3 or 24 hours, followed by 24 hours chronic stimulation with NMDA (8 μM) to induce neuronal damage. Each test plate included: a negative control (untreated), vehicle-treated control (0.02% vol/vol DMSO), a positive neurotoxic control—staurosporine 0.1 μM, a stressor—NMDA 8 μM, a positive neuroprotective control—NAC 300 μM, and a combination of stressor +neuroprotective molecule (NMDA+NAC). Cell viability was measured with Cell Counting Kit-8 assay compared to NMDA-treated control.
The potential neuroprotective activity of 160 selected non-toxic compounds was evaluated on murine cortical neurons (14 DIV) with either 3 h (FIG. 13) or 24 h compounds pre-treatment (FIG. 14). In assay with 3 h pre-treatment, 17 compounds were identified as potential NMDA-neuroprotective hits (marked with black asterisk in FIG. 13, stat. significant at p<0.05, Kruskal-Wallis test with post-hoc two-stage linear step-up procedure of Benjamini, Krieger and Yekutieli multiple comparison correction).

Compound	neuroprotection of viability/metabolic activity against NMDA
CN(C(=O)/C=C/c1ccoc1)[C@@H]1CC[C@@]2(O)[C@H]3Cc4ccc(O)c5c4[C@@]2(CCN3CC2CC2)[C@H]1O5 [Nalfurafine hydrochloride]	hit compounds
C[C@H](Nc1ncnc2[nH]cnc12)c1cc2ccc(F)cc2nc1-c1ccccn1 [AMG-319]	hit compounds

System: mouse cortical neurons
Assay: Morphological integrity evaluation, NMDA 8 μM (MAP2 neurite length and branching)
Assay type: cell-based
Conditions: 3 h pre-treatment, NMDA 8 μM 24 h; Z>0.5 criteria
Protocol: Apart of viability/metabolic readout in NMDA-mediated neurotoxicity assay, a neuronal structural integrity was evaluated by MAP2 staining. Mouse cortical neurons (14 DIV) cultured in MW96 plates were fixed with 4% paraformaldehyde (PFA). Fixed cells were incubated with blocking solution (PBS 1×, donkey serum 5%, Triton 0.1%) for 1-hour, primary antibody (rabbit α-MAP2, 1:250, Millipore) was applied in the same solution overnight at +4° C. […] Nuclei were stained with 4′-6-diamidino-2-phenylindole (DAPI, Roche). Microscopy was performed using ArrayScan™XTI (ThermoFisher) imaging platform. 15 images per well were acquired and analyzed by CellProfiler. Total neurite length and the total number of non-trunk branches were analyzed. Total neurite length and the total number of branching were evaluated from 15 images/well, each compound or control was tested in triplicates. The total neurite length and total number of branches were converted to a standardized Z-score using formula: Xij=((Xij−μ)/σ), where xij is the raw measurement of the compound located in well (i, j), and μ and σ are, respectively, the mean and the standard deviation of all measurements of the plate.^31
The morphological integrity of mouse cortical neurons upon chronic 24 h NMDA (8 μM) exposure with compounds pre-treatment (3 h) in preventive regimen was evaluated. Control (basal), DMSO, N-acetylcysteine (NAC) served as positive controls, while staurosporine and NMDA were negative controls.

Compound	preservation of neurite length and network integrity (branching)
CNC(=O)c1ccc(-c2cnc3ncc(Cc4ccc5ncccc5c4)n3n2)cc1F [Capmatinib]	preserved both neurite length and the network integrity (branching)
CNC(=O)c1ccc2cc([C@@]3(O)CCn4cncc43)ccc2c1 [Orteronel]	preserved both neurite length and the network integrity (branching)
CC[C@H](NC(=O)c1cc(-c2ccccc2)nc2ccccc12)c1ccccc1 [AZD-7624]	preserved both neurite length and the network integrity (branching)
CN=C(NS(=O)(=O)c1ccc(Cl)cc1)N1C[C@H](c2ccccc2)C(c2ccc(Cl)cc2)=N1 [Ibipinabant]	preserved both neurite length and the network integrity (branching)
O=C(O)CCn1c2c(c3ccccc31)C[C@H](NS(=O)(=O)c1ccc(F)cc1)CC2 [Ramatroban]	preserved both neurite length and the network integrity (branching)
C[C@@H]1COC(Nc2ccc3ncnc(Nc4ccc(OCc5nccs5)c(Cl)c4)c3c2)=N1 [Varlitinib]	preserved both neurite length and the network integrity (branching)
O=c1sn(-c2cccc3ccccc23)c(=O)n1Cc1ccccc1 [Tideglusib]	preserved both neurite length and the network integrity (branching)
CN1Cc2cc(Cl)ccc2-n2c(nnc2[C@H]2CC[C@H](Oc3ccccn3)CC2)C1 [RG7314]	preserved both neurite length and the network integrity (branching)
CC(=O)N(C)c1cccc(-c2ccnc3c(C(=O)c4cccs4)cnn23)c1 [Indiplon]	preserved both neurite length and the network integrity (branching)
CC(C)(C)S(=O)(=O)N[C@H]1CC[C@H](C(=O)Nc2ccc(C(F)(F)F)cn2)CC1 [Velneperit]	preserved both neurite length and the network integrity (branching)
NC(=O)c1ccc(N(C(N)=O)c2c(F)cccc2F)nc1-c1ccc(F)cc1F [VX-702]	preserved both neurite length and the network integrity (branching)
CC[C@H](CO)Nc1nc(NCc2ccccc2)c2ncn(C(C)C)c2n1 [Seliciclib]	preserved both neurite length and the network integrity (branching)
N[C@@H](Cc1ccccc1)C(=O)O [L-Phenylalanine]	preserved both neurite length and the network integrity (branching)
COc1ccsc1CNCC[C@@]1(c2ccccn2)CCOC2(CCCC2)C1 [Oliceridine]	preserved both neurite length and the network integrity (branching)
Cc1cc(F)c(C(=O)Nc2cccc(-c3nncn3C(C)C)n2)cc1-n1cnc(C2CC2)c1 [GS-4997]	preserved both neurite length and the network integrity (branching)
O=C(O)[C@H](CC(=O)N1C[C@H]2CCCC[C@H]2C1)Cc1ccccc1 [Mitiglinide]	preserved both neurite length and the network integrity (branching)
